Experimental data as given in ChEMBL document CHEMBL1201862, “PubChem BioAssay data set” (2004).
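96-well plates; 48 h exposure; 5 concentrations. Endpoints by linear interpolation between flanking doses. Not reached: highest tested concentration assigned. GI50: concentration for 50% inhibition of growth.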 Calls of active or inactive are those of the source. Rule as the data show it: active = GI50 up to about 1.1 µM and inactive = higher.

Legend:
Assay in all cases: NCI-60 cell line screen, 48 h
[1] = system: A498
[2] = system: NCI-H460
[3] = system: UO-31
[4] = system: HCC 2998
[5] = system: MOLT-4
[6] = system: NCI-H23
[7] = system: RPMI-8226
[8] = system: A549
[9] = system: SN12C
[10] = system: COLO 205
[11] = system: HL-60
[12] = system: ACHN
[13] = system: HCT-116
[14] = system: SF-268
[15] = system: LXFL 529
[16] = system: SK-MEL-28
[17] = system: SW-620

Measured: GI50

N#CC1C[C@@H]2CC3(CCC2CN1C(=O)c1ccccc1)OCCO3 (some centres not stated)
inactive: [1] > 100 µM | [2] > 100 µM | [3] > 100 µM | [4] > 100 µM | [5] > 100 µM | [6] > 100 µM | [7] > 100 µM | [8] > 100 µM | [9] > 100 µM | [10] > 100 µM | [11] > 100 µM | [12] > 100 µM | [13] > 100 µM | [14] > 100 µM | [15] > 100 µM | [16] > 100 µM | [17] > 100 µM

CN(N=O)C(=O)ON1C(=O)CCC1=O
inactive: [1] > 100 µM | [2] 47.8 µM | [3] > 100 µM | [4] > 100 µM | [5] > 100 µM | [6] > 100 µM | [7] > 100 µM | [8] > 100 µM | [11] > 100 µM | [12] > 100 µM | [13] > 100 µM | [14] > 100 µM | [15] > 100 µM | [16] > 100 µM | [17] > 100 µM

O=C(CP(=O)(O)O)c1cccs1
inactive: [1] > 100 µM | [2] > 100 µM | [3] > 100 µM | [4] > 100 µM | [6] > 100 µM | [7] > 100 µM | [8] > 100 µM | [9] > 100 µM | [10] > 100 µM | [11] > 100 µM | [12] > 100 µM | [13] > 100 µM | [14] > 100 µM | [15] > 100 µM | [16] > 100 µM | [17] > 100 µM

O=C(NCCCCCCCCCCCCNC(=O)c1cnc2ccccc2n1)c1cnc2ccccc2n1
inactive: [1] 24.9 µM | [2] 48.1 µM | [3] 23.9 µM | [4] > 100 µM | [5] > 100 µM | [7] 23.4 µM | [8] 92.5 µM | [9] 66.1 µM | [10] > 100 µM | [11] > 100 µM | [12] 44.3 µM | [13] 41.5 µM | [14] > 100 µM | [15] 33.7 µM | [16] > 100 µM | [17] > 100 µM

O=C1CC(S(=O)(=O)O)C=C1Nc1cccc(Cl)c1 (configuration not stated)
inactive: [1] > 100 µM | [2] > 100 µM | [3] > 100 µM | [4] > 100 µM | [5] > 100 µM | [6] > 100 µM | [8] > 100 µM | [9] > 100 µM | [10] > 100 µM | [11] > 100 µM | [12] > 100 µM | [13] > 100 µM | [14] > 100 µM | [15] > 100 µM | [16] > 100 µM | [17] > 100 µM

COc1ccc(C(=O)C(c2ccc(OC)cc2)C2(O)C(=O)Nc3ccc([N+](=O)[O-])cc32)cc1 (configuration not stated)
inactive: [1] 17.7 µM | [2] > 100 µM | [3] > 100 µM | [5] > 100 µM | [6] > 100 µM | [7] > 100 µM | [8] > 100 µM | [9] 12.1 µM | [10] > 100 µM | [11] 70.8 µM | [12] > 100 µM | [13] > 100 µM | [14] > 100 µM | [15] > 100 µM | [16] > 100 µM | [17] > 100 µM

CCOc1cc2c(cnc3c4cc(OC)c(OC)cc4ccc23)cc1OC
inactive: [1] > 100 µM | [2] > 100 µM | [3] > 100 µM | [4] > 100 µM | [5] > 100 µM | [6] > 100 µM | [7] > 100 µM | [8] > 100 µM | [9] > 100 µM | [10] > 100 µM | [12] > 100 µM | [13] > 100 µM | [14] > 100 µM | [15] > 100 µM | [16] > 100 µM | [17] > 100 µM

COc1ccc(NC(=O)CC(=O)N2N=C(N(CCC#N)c3cccc(C)c3)CC2c2ccccc2)cc1 (configuration not stated)
inactive: [2] > 100 µM | [3] > 100 µM | [4] > 100 µM | [5] > 100 µM | [6] > 100 µM | [7] > 100 µM | [8] > 100 µM | [9] > 100 µM | [10] > 100 µM | [11] > 100 µM | [12] > 100 µM | [13] > 100 µM | [14] > 100 µM | [15] > 100 µM | [16] > 100 µM | [17] > 100 µM

CC(=O)Nc1ccc(/C=C2\N=C(c3ccccc3)OC2=O)cc1
inactive: [2] 68.5 µM | [3] > 100 µM | [4] 36.1 µM | [5] 87.5 µM | [6] > 100 µM | [7] 48.8 µM | [8] > 100 µM | [9] 55 µM | [10] > 100 µM | [11] 76.7 µM | [12] > 100 µM | [13] 79.4 µM | [14] > 100 µM | [15] > 100 µM | [16] > 100 µM | [17] > 100 µM

O=C1NC(O)n2c(=O)[nH]c(=O)n21 (configuration not stated)
inactive: [2] > 100 µM | [3] > 100 µM | [4] > 100 µM | [5] > 100 µM | [6] > 100 µM | [7] > 100 µM | [8] > 100 µM | [9] > 100 µM | [10] > 100 µM | [11] 71 µM | [12] > 100 µM | [13] > 100 µM | [14] > 100 µM | [15] > 100 µM | [16] > 100 µM | [17] > 100 µM

COc1cccc(C=O)c1[O-].COc1cccc(C=O)c1[O-].[Zn+2]
inactive: [1] > 100 µM | [2] 42.1 µM | [3] 28.2 µM | [4] > 100 µM | [5] 33.8 µM | [6] 79.3 µM | [7] 49.1 µM | [8] > 100 µM | [9] 39.7 µM | [10] > 100 µM | [12] 44.1 µM | [13] 44.3 µM | [14] 55.7 µM | [15] 45.3 µM | [16] 76.7 µM | [17] 56.1 µM

COc1ccc2c(c1)CCc1cnn(C3OC(COC(C)=O)C(OC(C)=O)C(OC(C)=O)C3OC(C)=O)c1-2 (configuration not stated)
inactive: [1] > 100 µM | [2] > 100 µM | [4] > 100 µM | [5] 29.2 µM | [6] 69 µM | [7] 16.7 µM | [8] > 100 µM | [9] > 100 µM | [10] 84.7 µM | [11] > 100 µM | [12] > 100 µM | [13] > 100 µM | [14] > 100 µM | [15] 19.1 µM | [16] 41.1 µM | [17] 18.4 µM
